Read-outs that look alike come from different tables or passages of the source.
Biological target: T1, hPR (Homo sapiens, UniProt P06401)
T1 sequence (P06401 1-933): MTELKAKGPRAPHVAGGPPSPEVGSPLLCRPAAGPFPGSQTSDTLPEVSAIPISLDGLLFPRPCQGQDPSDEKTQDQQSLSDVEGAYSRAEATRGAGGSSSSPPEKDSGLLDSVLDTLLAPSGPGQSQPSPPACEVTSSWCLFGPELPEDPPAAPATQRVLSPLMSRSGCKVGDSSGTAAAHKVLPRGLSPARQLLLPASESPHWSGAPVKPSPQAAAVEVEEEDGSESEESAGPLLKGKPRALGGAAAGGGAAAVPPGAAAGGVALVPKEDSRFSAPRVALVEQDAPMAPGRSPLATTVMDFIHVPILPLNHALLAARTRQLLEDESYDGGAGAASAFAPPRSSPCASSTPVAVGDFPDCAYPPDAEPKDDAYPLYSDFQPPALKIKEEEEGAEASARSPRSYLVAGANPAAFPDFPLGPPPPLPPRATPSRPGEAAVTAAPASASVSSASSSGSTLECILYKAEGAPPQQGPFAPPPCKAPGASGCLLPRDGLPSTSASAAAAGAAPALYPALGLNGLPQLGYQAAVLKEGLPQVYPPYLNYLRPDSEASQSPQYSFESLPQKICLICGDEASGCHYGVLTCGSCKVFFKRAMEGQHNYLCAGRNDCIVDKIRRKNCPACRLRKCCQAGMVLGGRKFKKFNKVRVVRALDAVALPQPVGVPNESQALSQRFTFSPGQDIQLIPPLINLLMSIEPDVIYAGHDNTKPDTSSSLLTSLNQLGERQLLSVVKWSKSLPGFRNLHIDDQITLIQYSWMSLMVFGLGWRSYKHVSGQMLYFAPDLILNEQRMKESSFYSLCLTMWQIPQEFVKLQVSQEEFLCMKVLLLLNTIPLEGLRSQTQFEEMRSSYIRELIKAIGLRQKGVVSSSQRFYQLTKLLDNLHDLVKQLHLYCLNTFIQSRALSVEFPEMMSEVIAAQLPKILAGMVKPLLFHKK
Experiment: hPR cotransfection assay in CV-1 cells, agonist mode
Format: cell-based
Conditions: Tables 3 and 4, values without footnote

[1] = read-out: hPR agonist potencies (EC50 in nM) in the cotransfection assay
[2] = hPR agonist potencies (EC50 in nM) in the cotransfection assay

| EC50 [1] [nM] | Structure (SMILES) | EC50 [2] [nM] |
| --- | --- | --- |
| 48 | CC1=CC(C)(C)Nc2ccc3c(c21)C(c1ccc2c(c1)OCO2)Oc1ccccc1-3 (stereo not shown) [Formula I X=H Benzodioxol-5-yl, reference compound] | – |
| 6.2 | CC1=CC(C)(C)Nc2ccc3c(c21)/C(=C/c1ccccc1)Oc1c(Cl)cccc1-3 [Formula II X=7-Cl Phenyl, reference compound] | – |
| 3.95 | CC1=CC(C)(C)Nc2ccc3c(c21)/C(=C/c1cc(F)ccc1C)Oc1cc(F)c(F)cc1-3 [Formula II X=8,9-diF 2-Me-5-F-Ph, reference compound] | – |
| 13 | CC1=CC(C)(C)Nc2ccc3c(c21)/C(=C/c1ccccc1C)Oc1cc(F)c(F)cc1-3 [Formula II X=8,9-diF 2-Me-Ph, reference compound] | – |
| 13 | CC1=CC(C)(C)Nc2ccc3c(c21)/C(=C/c1ccccc1C)Oc1cc(F)ccc1-3 [Formula II X=8-F 2-Me-Ph, reference compound] | – |
| 109 | CC1=CC(C)(C)Nc2ccc3c(c21)/C(=C/c1cccc(F)c1)Oc1cc(F)ccc1-3 [Formula II X=8-F 3-F-Ph, reference compound] | – |
| 187 | CC1=CC(C)(C)Nc2ccc3c(c21)/C(=C/c1ccccc1)Oc1cc(F)ccc1-3 [Formula II X=8-F Phenyl, reference compound] | – |
| 10 | CC1=CC(C)(C)Nc2ccc3c(c21)/C(=C/c1cc(F)ccc1F)Oc1cc(O)ccc1-3 [Formula II X=8-OH 2,5-diF-Ph, reference compound] | – |
| > 1000 | COc1ccc2c(c1)O/C(=C\c1ccccc1Cl)c1c-2ccc2c1C(C)=CC(C)(C)N2 [Formula II X=8-OMe 2-Cl-Ph, reference compound] | – |
| 45 | COc1ccc2c(c1)O/C(=C\c1ccccc1F)c1c-2ccc2c1C(C)=CC(C)(C)N2 [Formula II X=8-OMe 2-F-Ph, reference compound] | – |
| 3.5 | COc1ccc2c(c1)O/C(=C\c1ccccc1C)c1c-2ccc2c1C(C)=CC(C)(C)N2 [Formula II X=8-OMe 2-Me-Ph, reference compound] | – |
| 24 | COc1ccc2c(c1)O/C(=C\c1ccccc1OC)c1c-2ccc2c1C(C)=CC(C)(C)N2 [Formula II X=8-OMe 2-MeO-Ph, reference compound] | – |
| 8.6 | COc1ccc2c(c1)O/C(=C\c1cccc(F)c1)c1c-2ccc2c1C(C)=CC(C)(C)N2 [Formula II X=8-OMe 3-F-Ph, reference compound] | – |
| 24 | COc1ccc2c(c1)O/C(=C\c1ccncc1C)c1c-2ccc2c1C(C)=CC(C)(C)N2 [Formula II X=8-OMe 3-Me-4-pyridinyl, reference compound] | – |
| 36 | COc1ccc2c(c1)O/C(=C\c1ccncc1)c1c-2ccc2c1C(C)=CC(C)(C)N2 [Formula II X=8-OMe 4-pyridinyl, reference compound] | – |
| 5.5 | COc1ccc2c(c1)O/C(=C\c1ccccc1)c1c-2ccc2c1C(C)=CC(C)(C)N2 [Formula II X=8-OMe Phenyl, reference compound] | – |
| 25 | CC1=CC(C)(C)Nc2ccc3c(c21)/C(=C/c1cc(F)ccc1F)Oc1ccc(Cl)cc1-3 [Formula II X=9-Cl 2,5-diF-Ph, reference compound] | – |

Second part, the compound before the results:

| Structure (SMILES) | EC50 [1] [nM] | EC50 [2] [nM] |
| --- | --- | --- |
| CC1=CC(C)(C)Nc2ccc3c(c21)C(c1ccc2c(c1)OCO2)Oc1c(F)cc(F)cc1-3 (racemic) [Compound 35, (±)-7,9-difluoro-5-(1,3-benzodioxol-5-yl)-1,2-dihydro-2,2,4-trimethyl-5H-chromeno[3,4-f]quinoline] | 3.85 | – |
| CC1=CC(C)(C)Nc2ccc3c(c21)C(c1ccc(Br)cc1)Oc1c(F)cc(F)cc1-3 (racemic) [Compound 36, (±)-7,9-difluoro-5-(4-bromophenyl)-1,2-dihydro-2,2,4-trimethyl-5H-chromeno[3,4-f]quinoline] | 4.96 | – |
| CC1=CC(C)(C)Nc2ccc3c(c21)C(c1cccc(F)c1)Oc1c(F)cc(F)cc1-3 (racemic) [Compound 40, (±)-7,9-difluoro-5-(3-fluorophenyl)-1,2-dihydro-2,2,4-trimethyl-5H-chromeno[3,4-f]quinoline] | 6.66 | – |
| CC1=CC(C)(C)Nc2ccc3c(c21)C(c1cccc(Br)c1)Oc1c(F)cc(F)cc1-3 (racemic) [Compound 42, (±)-7,9-difluoro-5-(3-bromophenyl)-1,2-dihydro-2,2,4-trimethyl-5H-chromeno[3,4-f]quinoline] | 3.65 | – |
| CC1=CC(C)(C)Nc2ccc3c(c21)C(c1ccc(Cl)cc1)Oc1c(F)cc(F)cc1-3 (racemic) [Compound 43, (±)-7,9-difluoro-5-(4-chlorophenyl)-1,2-dihydro-2,2,4-trimethyl-5H-chromeno[3,4-f]quinoline] | 5.1 | – |
| CC1=CC(C)(C)Nc2ccc3c(c21)C(C)Oc1c(F)cc(F)cc1-3 (racemic) [Compound 44, (±)-7,9-difluoro-1,2-dihydro-2,2,4,5-tetramethyl-5H-chromeno[3,4-f]quinoline] | – | 1.4 |
| CCC1Oc2c(F)cc(F)cc2-c2ccc3c(c21)C(C)=CC(C)(C)N3 (racemic) [Compound 46, (±)-7,9-difluoro-5-ethyl-1,2-dihydro-2,2,4-trimethyl-5H-chromeno[3,4-f]quinoline] | 6.93 | – |
| CCCCC1Oc2c(F)cc(F)cc2-c2ccc3c(c21)C(C)=CC(C)(C)N3 (racemic) [Compound 52, (±)-7,9-difluoro-5-butyl-1,2-dihydro-2,2,4-trimethyl-5H-chromeno[3,4-f]quinoline] | 15 | – |
| C=CCC1Oc2c(F)cc(F)cc2-c2ccc3c(c21)C(C)=CC(C)(C)N3 (racemic) [Compound 55, (±)-7,9-difluoro-5-allyl-1,2-dihydro-2,2,4-trimethyl-5H-chromeno[3,4-f]quinoline] | 3.6 | – |
| CC1=CC(C)(C)Nc2ccc3c(c21)C(c1cccc(C(F)(F)F)c1)Oc1c(F)cc(F)cc1-3 (racemic) [Compound 56, (±)-7,9-difluoro-5-[3-(trifluoromethyl)phenyl]-1,2-dihydro-2,2,4-trimethyl-5H-chromeno[3,4-f]quinoline] | 1.6 | – |
| CC1=CC(C)(C)Nc2ccc3c(c21)/C(=C/c1ccccc1Cl)Oc1c(F)cc(F)cc1-3 [Compound 13, 7,9-difluoro-5(Z)-(2-chlorobenzylidene)-1,2-dihydro-2,2,4-trimethyl-5H-chromeno[3,4-f]quinoline] | 1.92 | – |
| CC1=CC(C)(C)Nc2ccc3c(c21)/C(=C/c1ccc(F)cc1)Oc1c(F)cc(F)cc1-3 [Compound 16, 7,9-difluoro-5(Z)-(4-fluorobenzylidene)-1,2-dihydro-2,2,4-trimethyl-5H-chromeno[3,4-f]quinoline] | 3.7 | – |
| CC1=CC(C)(C)Nc2ccc3c(c21)/C(=C/c1cccc(F)c1C)Oc1c(F)cc(F)cc1-3 [Compound 21, 7,9-difluoro-5(Z)-(2-methyl-3-fluorobenzylidene)-1,2-dihydro-2,2,4-trimethyl-5H-chromeno[3,4-f]quinoline] | 8.2 | – |
| CC1=CC(C)(C)Nc2ccc3c(c21)/C(=C/c1ccccc1C)Oc1c(F)cc(F)cc1-3 [Compound 81, 7,9-difluoro-5(Z)-(2-methylbenzylidene)-1,2-dihydro-2,2,4-trimethyl-5H-chromeno[3,4-f]quinoline] | 1.66 | – |
| CC1=CC(C)(C)Nc2ccc3c(c21)C(c1cccc(C(F)(F)F)c1)Oc1ccc(Cl)cc1-3 (stereo not shown) [Formula I X=9-Cl 3-CF3-Ph, reference compound] | 7.4 | – |
| CC1=CC(C)(C)Nc2ccc3c(c21)C(c1ccc(Cl)c(C)c1)Oc1ccc(Cl)cc1-3 (stereo not shown) [Formula I X=9-Cl 4-Cl-3-Me-Ph, reference compound] | 9.4 | – |
| C=CCC1Oc2ccc(F)cc2-c2ccc3c(c21)C(C)=CC(C)(C)N3 (stereo not shown) [Formula I X=9-F Allyl, reference compound] | 7.5 | – |
| CCC1Oc2ccc(F)cc2-c2ccc3c(c21)C(C)=CC(C)(C)N3 (stereo not shown) [Formula I X=9-F Et, reference compound] | 9 | – |
| CC1=CC(C)(C)Nc2ccc3c(c21)C(c1cccc(Cl)c1)Oc1ccc(C)cc1-3 (stereo not shown) [Formula I X=9-Me 3-Cl-Ph, reference compound] | 4.85 | – |
| CC1=CC(C)(C)Nc2ccc3c(c21)C(c1cccc(C)c1)Oc1ccc(C)cc1-3 (stereo not shown) [Formula I X=9-Me 3-Me-Ph, reference compound] | 44 | – |
| CC1=CC(C)(C)Nc2ccc3c(c21)C(c1ccc(Cl)c(C)c1)Oc1ccc(C)cc1-3 (stereo not shown) [Formula I X=9-Me 4-Cl-3-Me-Ph, reference compound] | – | 7.45 |
| COc1ccc2c(c1)-c1ccc3c(c1C(c1cccc(C)c1)O2)C(C)=CC(C)(C)N3 (stereo not shown) [Formula I X=9-OMe 3-Me-Ph, reference compound] | 11 | – |
| CC1=CC(C)(C)Nc2ccc3c(c21)C(c1cccc(C)c1)Oc1ccccc1-3 (stereo not shown) [Formula I X=H 3-Me-Ph, reference compound] | 145 | – |
